Entries after “also recorded” stand apart in the source; their conditions may differ.
Tested on: PCDH8 expression in MDA-MB-435s cells
Assay: 5-aza-deoxycytidine treatment, reactivation of PCDH8 expression (RT-PCR)
Type: cell-based, human
Settings: MDA-MB-435s breast cancer cells with methylated PCDH8 promoter, 1 μM 5-aza-deoxycytidine for 72 hours, vs PBS control
Experimental: Cells were lysed in solution D, and RNA was separated by CsCl. RNA was resuspended in sodium acetate, and reprecipitated with ethanol. The pellet was dissolved in DEPC-treated water. RNA was primed with random hexamers, and reverse-transcribed with Superscript II reverse transcriptase (Invitrogen).
cDNA was synthesized from RNA primed with random hexamers (Amersham). Primers used for RT-PCR are below: DIAPH3: […] (SEQ ID NO:74, […] (SEQ ID NO:75). PCDH8: TGGCGGTGTGGAAAGGACA (SEQ ID NO:75), […] (SEQ ID NO:76). For reactivation studies, cells were treated with 1 μM 5-aza-deoxycytidine for 72 hours.
Cells were plated to 20% confluence, and treated with fresh 1 micromolar 5-aza-deoxycytidine for 72 h. RNA and cDNA were prepared from the cells and subjected to PCR.

Nc1ncn([C@H]2C[C@H](O)[C@@H](CO)O2)c(=O)n1 [5-aza-deoxycytidine]
PCDH8 expression after treatment: restored; also recorded: reactivated
